Measured values as given in patent publication EP4759814A1, “TRICYCLIC COMPOUND AND USE THEREOF AS MAT2A INHIBITOR” (SK Biopharmaceuticals Co., Ltd., priority 2023, dated 2025).

Legend:
[1] = system: HCT116 (MTAP del) cell line; experiment: Cell proliferation inhibition in MTAP-deficient cancer cells, WST-1 assay; assay type: cell-based; details: Homo sapiens, HCT-116, 120 hours of drug treatment, maximum concentration 10 µM, read-out: HCT116 MTAP^-/- (IC50, cell proliferation inhibited by 50%)
Protocol: (§1) The HCT116 (MTAP del) cell line, which is a colorectal cancer cell line with deletion of MTAP gene, was treated with a compound according to an embodiment of the present application as a MAT2A inhibitor, and after culturing for 120 hours, the change in the number of cells was measured with a WST-1 assay reagent. The WST-1 assay is an assay that measures the number of cells by measuring the generation of a chromogenic substance called formazan from tetrazolium salts by intracellular mitochondrial dehydrogenase. In addition, as a control group, a wild-type colorectal cancer HCT116 (MTAP WT) cell line containing the MTAP gene was used to perform the experiment in the same manner as the experimental group.
(§2) Cell lines and reagents: HCT116 (MTAP WT (catalog number HD PAR-034), MTAP del (catalog number HD R02-033)) cell lines were purchased from Horizon Discovery (USA), and RPMI1640 medium (catalog number 22400-093), FBS (Fetal Bovine serum, catalog number 16000044), and Penicillin/Streptomycin (catalog number 15140-122) were purchased from GIBCO (USA). WST-1 (catalog number EZ-BULK150) was purchased from Dogen (Korea).
(§3) Experimental procedure: HCT116 (MTAP WT, MTAP del) cell lines were dispensed into a 96-well plate at a concentration of 1,000 cells/well in RPMI1640 culture medium containing 10% FBS and 1% Penicillin/Streptomycin, and allowed to attach for 24 hours. When the cells were attached to the plate, the drug was diluted 4-fold from a maximum concentration of 10 µM and treated on the cells. After 120 hours of drug treatment, 20 µL of WST-1 solution was treated for 2 hours, and absorbance at 450 nm was measured using SpectraMax M4 (Molecular Devices). Data analysis was calculated by taking the DMSO control group value as 100%. For the IC50 value, the concentration at which cell proliferation is inhibited by 50% was calculated through interpolation using a 4-parameter fit of the dose-response curve using the GraphPad Prism 8.4.3 program. The cancer cell proliferation inhibitory ability and selectivity in MTAP-deficient cancer cells of the compounds according to an embodiment of the present application are described in Table 3 (+++: 1 to 100 nM, ++: more than 100 to 1,000 nM, +: more than 1 to 10 µM, -: more than 10 µM).

[2] = molecular target: T1, MAT2A (Homo sapiens, UniProt P31153); experiment: MAT2A inhibitory activity, colorimetric phosphate detection (PiColorLock) enzyme assay; assay type: biochemical; details: Test Condition 1 or 2 (not stated which per compound); absorbance at 630 nm
T1 construct: purchased BPS Bioscience (USA) 71401
Protocol: In vitro assay: Methionine and adenosine triphosphate (ATP) are converted into S-adenosylmethionine (SAM) and inorganic phosphate (pi) via the catalytic action of methionine adenosyltransferase 2A (MAT2A). The produced pi is detected by the PiColorLock™ Phosphate Detection Reagent, which is a colorimetric assay, and the activity of MAT2A can be evaluated according to the amount of pi generated during the enzyme reaction. Each compound was evaluated under Test Condition 1 or 2 as described below.
• Concentration of MAT2A inhibitor: maximum concentration of 50 µM, 5-fold dilution (7 groups in total) • MAT2A concentration: 12 ng/µL • ATP and Met concentration: 100 µM, 80 µM
• Concentration of MAT2A inhibitor: maximum concentration of 1 µM, 3-fold dilution (7 groups in total) • MAT2A concentration: 4 ng/µL • ATP and Met concentration: 300 µM, 150 µM • Reagents: Methionine (catalog number M5308) and ATP (catalog number A2383) were purchased from Sigma-Aldrich (USA). MAT2A (catalog number 71401) was purchased from BPS Bioscience (USA), and PiColorLock™ Phosphate Detection Reagent (catalog number 303-0030) was purchased from Novus (USA).
Assay buffer composition: 50 mM Tris-HCl pH 8.0, 50 mM KCI, 15 mM MgCl2, 0.3 mM EDTA, 0.005 % (w/v) BSA
Experimental procedure: Each compound was diluted 5-fold or 3-fold based on the maximum concentration (5 mM or 1 mM or 0.1 mM) using DMSO. The diluted compounds were diluted 20-fold using assay buffer, and then mixed at a volume ratio of 1:2 with MAT2A (30 ng/µL or 10 ng/µL) diluted with assay buffer and treated for 30 minutes at room temperature. The negative control group is a group untreated with both the MAT2A enzyme and the compound according to an embodiment of the present application, and the positive control group is a group treated only with the MAT2A enzyme and untreated with the compound according to an embodiment of the present application.
In each well of a 384-well plate, 30 µL of the mixed solution and 20 µL of a 1:1 mixed solution of ATP (0.5 mM or 1.5 mM) and Met (0.4 mM or 0.75 mM) were mixed and then treated for 1 hour at room temperature. After the enzyme reaction, 13 µL of a 100:1 mixed solution of PiColorLockTM and Accelerator was treated in each well and reacted for 5 minutes at room temperature. After treating 5 µL of Stabilizer in each well and reacting for 25 minutes at room temperature, the absorbance at 630 nm was measured using SpectraMax M4 (Molecular Devices, USA) to calculate the IC50 value of the compound.
Analysis method: The enzyme activity (%) of each experimental group was calculated as {(average O.D. of compound-treated group - average O.D. of negative control group)/(average O.D. of positive control group - average O.D. of negative control group)} * 100. After preparing a dose-response curve (4-parameter) using the enzyme activity according to the treatment concentration of each compound in GraphPad Prism 9, the 50 % of enzyme inhibitory activity value (IC50) was calculated through non-linear regression analysis. The IC50 results measured for the MAT2A activity inhibitory ability of the compounds according to an embodiment of the present application are shown in Table 2 (+++: more than 1 to 100 nM, ++: more than 100 to 1,000 nM, +: more than 1,000 to 10,000 nM, -: more than 10,000 nM).

[3] = system: HCT116 (MTAP WT) cell line; experiment: Cell proliferation inhibition in wild-type control cells, WST-1 assay; assay type: cell-based; details: Homo sapiens, HCT-116, 120 hours of drug treatment, maximum concentration 10 µM, read-out: HCT116 WT (IC50, cell proliferation inhibited by 50%)
Protocol: as §1, §2, §3

T1 sequence (P31153 whole entry): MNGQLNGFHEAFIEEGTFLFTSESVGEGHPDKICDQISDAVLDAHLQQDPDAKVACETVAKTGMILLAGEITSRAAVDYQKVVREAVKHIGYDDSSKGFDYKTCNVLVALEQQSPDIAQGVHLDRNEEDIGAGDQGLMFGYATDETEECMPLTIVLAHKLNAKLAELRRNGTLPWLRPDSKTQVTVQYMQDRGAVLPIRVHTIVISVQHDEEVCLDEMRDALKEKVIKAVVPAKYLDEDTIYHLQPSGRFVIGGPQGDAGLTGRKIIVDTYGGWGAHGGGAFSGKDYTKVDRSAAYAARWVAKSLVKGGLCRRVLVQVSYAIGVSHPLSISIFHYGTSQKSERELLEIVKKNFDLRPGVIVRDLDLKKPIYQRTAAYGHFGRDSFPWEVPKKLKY

Row | IC50 [1] | IC50 [2] | IC50 [3] | Structure (SMILES)
1 | > 10000 nM | > 10000 nM | > 10000 nM | CCOc1ccc2c(c1)n(-c1ccccc1C)c(=O)c1nccn12 [Example 30, 7-ethoxy-5-(o-tolyl)imidazo[1,2-a]quinoxalin-4(5H)-one]
2 | 1 to 100 nM | 1 to 100 nM | 1000 to 10000 nM | Cc1ccccc1-n1c(=O)c2nccn2c2ccc(Br)cc21 [Example 32, 7-bromo-5-(o-tolyl)imidazo[1,2-a]quinoxalin-4(5H)-one]
3 | 1 to 100 nM | 1 to 100 nM | 100 to 1000 nM | Cc1ncccc1-n1c(=O)c2nccn2c2ccc(Cl)cc21 [Example 33, 7-chloro-5-(2-methylpyridin-3-yl)imidazo[1,2-a]quinoxalin-4(5H)-one]
4 | 1 to 100 nM | 1 to 100 nM | 100 to 1000 nM | Cc1ncccc1-n1c(=O)c2ncc(C)n2c2ccc(Cl)cc21 [Example 34, 7-chloro-1-methyl-5-(2-methylpyridin-3-yl)imidazo[1,2-a]quinoxalin-4(5H)-one]
5 | 100 to 1000 nM | 100 to 1000 nM | > 10000 nM | Cc1ccccc1-n1c(=O)c2nccn2c2ccc(Cl)nc21 [Example 35, 7-chloro-5-(o-tolyl)imidazo[1,2-a]pyrido[2,3-e]pyrazin-4(5H)-one]
6 | 100 to 1000 nM | 100 to 1000 nM | > 10000 nM | Cc1ccc2c(n1)n(-c1ccccc1C)c(=O)c1nccn12 [Example 36, 7-methyl-5-(o-tolyl)imidazo[1,2-a]pyrido[2,3-e]pyrazin-4(5H)-one]
7 | 100 to 1000 nM | 100 to 1000 nM | > 10000 nM | COc1ccccc1-n1c(=O)c2nccn2c2ccc(Cl)cc21 [Example 37, 7-chloro-5-(2-methoxyphenyl)imidazo[1,2-a]quinoxalin-4(5H)-one]
8 | 1 to 100 nM | 100 to 1000 nM | > 10000 nM | O=c1c2nccn2c2ccc(Cl)cc2n1-c1ccccc1Br [Example 38, 5-(2-bromophenyl)-7-chloroimidazo[1,2-a]quinoxalin-4(5H)-one]
9 | 100 to 1000 nM | 100 to 1000 nM | > 10000 nM | Cc1cccc(-n2c(=O)c3nccn3c3ccc(Cl)cc32)c1 [Example 39, 7-chloro-5-(m-tolyl)imidazo[1,2-a]quinoxalin-4(5H)-one]
10 | 100 to 1000 nM | 100 to 1000 nM | > 10000 nM | O=c1c2nccn2c2ccc(Cl)cc2n1-c1cccc(F)c1 [Example 40, 7-chloro-5-(3-fluorophenyl)imidazo[1,2-a]quinoxalin-4(5H)-one]
11 | 1 to 100 nM | 1 to 100 nM | 100 to 1000 nM | Cc1cn2c(n1)c(=O)n(-c1cccnc1C)c1cc(Cl)ccc12 [Example 45, 7-chloro-2-methyl-5-(2-methylpyridin-3-yl)imidazo[1,2-a]quinoxalin-4(5H)-one]
12 | 100 to 1000 nM | 100 to 1000 nM | > 10000 nM | Cc1ccccc1-n1c(=O)c2nccn2c2ccc(C(F)F)nc21 [Example 46, 7-(difluoromethyl)-5-(o-tolyl)imidazo[1,2-a]pyrido[2,3-e]pyrazin-4(5H)-one]

The remaining lines, values behind:

Row | Structure (SMILES) | IC50 [1] | IC50 [2] | IC50 [3]
13 | Cc1ccccc1-n1c(=O)c2nccn2c2ccc(C3CC3)cc21 [Example 16, 7-cyclopropyl-5-(o-tolyl)imidazo[1,2-a]quinoxalin-4(5H)-one] | 100 to 1000 nM | 100 to 1000 nM | > 10000 nM
14 | COc1ccc2c(c1)n(-c1ccccc1C)c(=O)c1nccn12 [Example 17, 7-methoxy-5-(o-tolyl)imidazo[1,2-a]quinoxalin-4(5H)-one] | 100 to 1000 nM | 100 to 1000 nM | > 10000 nM
15 | Cc1ccccc1-n1c(=O)c2nccn2c2ccc(C#N)cc21 [Example 18, 4-oxo-5-(o-tolyl)-4,5-dihydroimidazo[1,2-a]quinoxalin-7-carbonitrile] | 1000 to 10000 nM | 1000 to 10000 nM | > 10000 nM
16 | Cc1ccccc1-n1c(=O)c2nccn2c2ccc(OC(F)(F)F)cc21 [Example 19, 5-(o-tolyl)-7-(trifluoromethoxy)imidazo[1,2-a]quinoxalin-4(5H)-one] | 1000 to 10000 nM | 1000 to 10000 nM | > 10000 nM
17 | Cc1ccccc1-n1c(=O)c2nccn2c2ccc(C(F)F)cc21 [Example 22, 7-(difluoromethyl)-5-(o-tolyl)imidazo[1,2-a]quinoxalin-4(5H)-one] | 1 to 100 nM | 1 to 100 nM | > 10000 nM
18 | O=c1c2nccn2c2ccc(Cl)cc2n1-c1ccccc1Cl [Example 23, 7-chloro-5-(2-chlorophenyl)imidazo[1,2-a]quinoxalin-4(5H)-one] | 100 to 1000 nM | 1 to 100 nM | > 10000 nM
19 | CC(=O)c1ccc2c(c1)n(-c1ccccc1C)c(=O)c1nccn12 [Example 24, 7-acetyl-5-(o-tolyl)imidazo[1,2-a]quinoxalin-4(5H)-one] | > 10000 nM | 100 to 1000 nM | > 10000 nM
20 | Cc1ccccc1-n1c(=O)c2nccn2c2ccc(I)cc21 [Example 25, 7-Iodo-5-(o-tolyl)imidazo[1,2-a]quinoxalin-4(5H)-one] | 1 to 100 nM | 1 to 100 nM | 100 to 1000 nM
21 | Cc1ccccc1-n1c(=O)c2nccn2c2ccc(C(F)(F)F)cc21 [Example 26, 5-(o-tolyl)-7-(trifluoromethyl)imidazo[1,2-a]quinoxalin-4(5H)-one] | 1 to 100 nM | 1 to 100 nM | > 10000 nM
22 | Cc1c(F)cccc1-n1c(=O)c2nccn2c2ccc(C#N)cc21 [Example 27, 5-(3-fluoro-2-methylphenyl)-4-oxo-4,5-dihydroimidazo[1,2-a]quinoxalin-7-carbonitrile] | 100 to 1000 nM | 100 to 1000 nM | > 10000 nM
23 | Cc1ccccc1-n1c(=O)c2nccn2c2ccc(OCC(F)(F)F)cc21 [Example 28, 5-(o-tolyl)-7-(2,2,2-trifluoroethoxy)imidazo[1,2-a]quinoxalin-4(5H)-one] | > 10000 nM | > 10000 nM | > 10000 nM
